Measurements as given in publication PMC4839669, “Heterologous Expression and Biochemical Characterization of Two Lipoxygenases in Oriental Melon, Cucumis melo var. makuwa Makino” (PLoS ONE, 2016).

Molecular target: T1, CmLOX10 (Cucumis melo, UniProt A0A125S6K7)
T1 construct: gene LOX10; full-length 902 residues incl. predicted 37-residue transit peptide; N-terminal His tag (pET-30a), E. coli BL21(DE3), Ni-NTA
T1 sequence (A0A125S6K7 1-902): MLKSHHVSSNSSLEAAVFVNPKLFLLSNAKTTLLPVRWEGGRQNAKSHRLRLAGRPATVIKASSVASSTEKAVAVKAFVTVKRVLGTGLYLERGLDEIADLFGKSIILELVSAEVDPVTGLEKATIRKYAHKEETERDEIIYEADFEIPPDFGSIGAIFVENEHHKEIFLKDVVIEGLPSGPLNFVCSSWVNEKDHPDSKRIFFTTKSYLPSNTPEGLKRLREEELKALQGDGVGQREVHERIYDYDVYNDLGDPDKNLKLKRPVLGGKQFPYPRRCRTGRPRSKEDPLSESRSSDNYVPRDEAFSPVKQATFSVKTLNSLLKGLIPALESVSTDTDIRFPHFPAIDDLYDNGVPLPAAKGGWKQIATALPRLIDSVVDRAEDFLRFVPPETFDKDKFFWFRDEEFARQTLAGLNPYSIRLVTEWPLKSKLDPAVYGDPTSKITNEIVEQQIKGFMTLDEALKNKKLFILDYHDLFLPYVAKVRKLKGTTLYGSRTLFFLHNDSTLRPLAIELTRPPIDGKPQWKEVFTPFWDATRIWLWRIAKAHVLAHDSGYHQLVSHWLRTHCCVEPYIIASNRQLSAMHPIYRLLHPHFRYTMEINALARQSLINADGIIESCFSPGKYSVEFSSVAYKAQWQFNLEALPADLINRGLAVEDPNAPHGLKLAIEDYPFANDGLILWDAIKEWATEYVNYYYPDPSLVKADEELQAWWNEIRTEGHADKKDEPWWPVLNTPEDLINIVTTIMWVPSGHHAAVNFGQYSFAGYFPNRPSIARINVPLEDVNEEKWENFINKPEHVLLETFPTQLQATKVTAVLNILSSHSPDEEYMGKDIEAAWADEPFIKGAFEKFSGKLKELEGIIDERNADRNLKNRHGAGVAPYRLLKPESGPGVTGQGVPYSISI
Assay: conjugated diene formation at […] nm, Michaelis-Menten
Assay type: biochemical
Settings: 25 °C, saturating oxygen, 16.5-330 μM substrate; pH of kinetics not stated explicitly (optimum pH 5.0)

| Km [µM] | Structure (SMILES) |
| --- | --- |
| 140 | CC/C=C\C/C=C\C/C=C\CCCCCCCC(=O)O [linolenic acid] |
| 230 | CCCCC/C=C\C/C=C\CCCCCCCC(=O)O [linoleic acid] |
